Test results published in patent US11684614B2, “Formulations of hydroxypyridonate actinide/lanthanide decorporation agents” (priority 2017, dated 2023).
Where two headings read alike, the source gives them in different places.

Columns and labels:
[1] = Related substance assay / chromatographic API purity of prototype formulations; type: physicochemical
Description: Analytical Method I for Related Substance Assay (TABLE 2.5):
This method was previously established and validated (see 3,4,3-L1(1,2-HOPO)—Excipient Compatibility Study; EXAMPLE 1). Suitability was therefore not re-evaluated as part of this study.
Analytical Method I for Related Substance Assay (TABLE 2.6):
The related substances, estimated as area (%) from the chromatograms, and the chromatographic purity of 3,4,3-L1(1,2-HOPO) in selected prototype formulations are listed in TABLE 2.28.

[2] = type: in vivo, Swiss-Webster mice; conditions: for urinary excretion, of administered dose: rodents (mice)
Description: (§1) Formulated material was used in the single dose in vivo ADME characterization studies in Sprague Dawley rats and Swiss-Webster mice with 14C-labeled 3,4,3-L1(1,2-HOPO).
(§2) Pharmacokinetic parameters and disposition/biodistribution of 3,4,3-L1(1,2-HOPO) were characterized in vivo (with the aid of two 14C labels on the spermine backbone of the parent product) in two non-GLP studies using Swiss-Webster mice and Sprague Dawley rats. The study designs for these two studies are shown in TABLE 5.1 and TABLE 5.2, respectively. Groups of six mice (3 male, 3 female) were given a single dose of [14C]-3,4,3-L1(1,2-HOPO) via iv, ip, or po routes, respectively. An additional group of six mice (3 male, 3 female) were administered the 14C-labeled API with permeability enhancer (10% sodium oleate) by oral gavage (po). Similarly, groups of six rats (3 male, 3 female) were administered a single iv dose of the 14C-labeled API or a single po dose of the 14C-labeled API with 10% sodium oleate. In each of these studies, samples were collected at scheduled time points up to 24 hr post-dose and analyzed for 14C content using liquid scintillation counting. Blood, liver, kidney, feces and urine were collected and analyzed from the mice. Blood, brain, liver, kidney, lungs, spleen, skeletal muscle tissues, gastrointestinal (GI) tract samples, carcasses, feces, and urine were collected and analyzed from the rats.

[3] = Radiolabeled in vivo ADME study in rats (with metabolite profiling); design: species or system Sprague Dawley rats; conditions: for urinary excretion, of administered dose: rodents (rats)
Description: as §1, §2
The principal excretion routes of radioactivity from [14C]-3,4,3-L1(1,2-HOPO) were both the feces and urine after an iv dose based on high levels of radioactivity in both feces and urine as well as significant radioactivity in the excretory tissues, kidney, liver and GI tract. Fecal elimination by 24 hr post-dose accounted for approximately 62% and 16% of the iv administered dose in mice and rats, respectively. Urinary excretion accounted for approximately 12-23% of the iv administered dose in these rodents with renal excretion of 14C beginning as early as 5 min after iv injection in mice. In contrast, following oral administration, excretion was primarily by the fecal route accounting for approximately 89% and 41% of the orally administered dose in mice and rats, respectively, by 24 h post-dose. Urinary excretion accounted for <1% of the orally administered dose and low radioactivity levels were detected in systemic circulation and in tissues except for the GI tract. […] Based on the colonic transit time in rats of 15.5 hr, 11 the radioactivity found in the feces in the first 24 hr after po administration is most likely unabsorbed compound. […] Metabolite profiling of [14C]-3,4,3-L1(1,2-HOPO) was performed using an HPLC method on selected urine, feces, kidney, liver, and lung samples from the Sprague Dawley rat. Only samples containing the highest total radioactive levels were selected for analysis. A total of 11 peaks were detected, of which 6 were from uncharacterized interactions between the test article and matrix components because they were also seen in spiked blank matrix controls. These 6 peaks are not metabolites and are considered alternate forms of the parent compound (e.g. complexes of the test article with metallic ions). The 5 other radioactive species (peaks P1-P4 and P10) are considered potential metabolites. Feces-specific metabolite peaks P2, P3, and P10 represented a combined 10.5-11.4% and 0.5-4.2% of the administered dose after po or iv administration, respectively, in rats. Peak P10 was the most abundant peak in all samples analyzed. It represented up to 10% of the administered dose in feces after po administration while the other two feces-specific peaks represented <1% of the administered dose after po administration. Peak P10 was also the predominant, and sometimes the only, peak in feces samples after iv administration. […]

Which “Chromatographic Purity of 3,4,3-LI(1,2-HOPO)” value ([1]; 3,4,3-LI(1,2-HOPO) peak) does the source give for `O=C(NCCCN(CCCCN(CCCNC(=O)c1cccc(=O)n1O)C(=O)c1cccc(=O)n1O)C(=O)c1cccc(=O)n1O)c1cccc(=O)n1O` [Drug Substance Control] here?
The value was 97.45 area (%).

What about the “Related Substances, Unknown peak” value ([1]; RRT 0.59) of the same compound?
The value was 0.01 area (%).

What about the “Related Substances, Unknown peak” value ([1]; RRT 0.61) of the same compound?
Its value is 0.01 area (%).

What about the “Related Substances, Unknown peak” value ([1]; RRT 0.62) of the same compound?
Its value is 0.01 area (%).

And the “Related Substances, Unknown peak” value ([1]; RRT 0.87)?
Its value is 0.11 area (%).

And the “Related Substances, Unknown peak” value ([1]; RRT 0.89)?
The value was 0.13 area (%).

And the “Related Substances, Unknown peak” value ([1]; RRT 1.02)?
Its value is 0.08 area (%).

What about the “Related Substances, Unknown peak” value ([1]; RRT 1.11) of the same compound?
Its value is 0.04 area (%).

What about the “Related Substances, Unknown peak” value ([1]; RRT 1.27) of the same compound?
Its value is 0.17 area (%).

And the “Related Substances, Unknown peak” value ([1]; RRT 1.30)?
Its value is 0.10 area (%).

What about the “Related Substances, Unknown peak” value ([1]; RRT 1.39) of the same compound?
Its value is 0.20 area (%).

And the “Related Substances, Unknown peak” value ([1]; RRT 1.40)?
The value was 0.04 area (%).

And the “Related Substances, Unknown peak” value ([1]; RRT 1.46)?
The value was 0.60 area (%).

What about the “Related Substances, Unknown peak” value ([1]; RRT 1.74) of the same compound?
The value was 0.15 area (%).

What about the “Related Substances, Unknown peak” value ([1]; RRT 1.89) of the same compound?
The value was 0.18 area (%).

And the “Related Substances, Unknown peak” value ([1]; RRT 2.17)?
The value was 0.33 area (%).

What about the “Related Substances, Unknown peak” value ([1]; RRT 2.30) of the same compound?
Its value is 0.05 area (%).

And the “Related Substances, Unknown peak” value ([1]; RRT 2.58)?
The value was 0.25 area (%).

What about the “Related Substances, Unknown peak” value ([1]; RRT 2.79) of the same compound?
The value was 0.11 area (%).

Which “time of highest level of radioactivity in kidneys and liver” value (“time of highest level of radioactivity” below) ([2]; ip, mice) does the source give for [14C]-3,4,3-L1(1,2-HOPO) here?
Its value is 1 h.

And the “fecal elimination, of administered dose” value ([2]; iv, by 24 hr post-dose, mice)?
The value was “approximately 62%”.

And the “AUC (plasma radioactivity)” value ([2]; iv, female mice)?
Its value is 66.2 hr Pg-eq/ml.

And the “C0 (plasma radioactivity)” value ([2]; iv, female mice)?
The value was 342 Pg-eq/mL.

What about the “AUC (plasma radioactivity)” value ([2]; iv, male mice) of the same compound?
The value was 41.7 hr Pg-eq/ml.

And the “C0 (plasma radioactivity)” value ([2]; iv, male mice)?
The value was 76 Pg-eq/mL.

And the “time of highest level of radioactivity” value ([2]; iv, mice)?
The value was 1 h.

What about the “urinary excretion, of administered dose” value ([2]; iv) of the same compound?
Its value is 12-23%.

What about the “oral bioavailability improvement with sodium oleate” value ([2]; mice) of the same compound?
Its value is 2- to 3 fold.

What about the “fecal excretion, of administered dose” value ([2]; oral, by 24 h post-dose, mice) of the same compound?
The value was “approximately 89%”.

And the “bioavailability of total radioactivity” value ([2]; oral, mice)?
Its value is under 3%.

And the “urinary excretion, of administered dose” value ([2]; oral)?
The value was under 1%.

What about the “general rank order of tissue concentrations” value ([3]; iv, 2 hr time point, rats) of the same compound?
The value was “kidney>liver>lung>brain spleen muscle”.

And the “fecal elimination, of administered dose” value ([3]; iv, by 24 hr post-dose, rats)?
The value was about 16%.

And the “AUC (plasma radioactivity)” value ([3]; iv, female rats)?
Its value is 211 hr Pg-eq/ml.

And the “C0 (plasma radioactivity)” value ([3]; iv, female rats)?
The value was 422 Pg-eq/ml.

What about the “AUC (plasma radioactivity)” value ([3]; iv, male rats) of the same compound?
The value was 354 hr Pg-eq/ml.

What about the “C0 (plasma radioactivity)” value ([3]; iv, male rats) of the same compound?
The value was 463 Pg-eq/ml.

And the “feces-specific metabolite peaks P2, P3, and P10 combined, of the administered dose” value ([3]; iv, rats)?
Its value is 0.5-4.2%.

What about the “metabolite peak P1 in urine, of the administered dose” value ([3]; iv, rats) of the same compound?
Its value is at most 0.4%.

And the “time of highest level of radioactivity” value ([3]; iv, rats)?
Its value is 2 h.

What about the “urinary excretion, of administered dose” value ([3]; iv) of the same compound?
Its value is 12-23%.

What about the “fecal excretion, of administered dose” value ([3]; oral, by 24 h post-dose, rats) of the same compound?
The value was about 41%.

And the “bioavailability of total radioactivity” value ([3]; oral, rats)?
Its value is under 3%.

And the “putative major metabolite (P10), of an administered oral dose” value ([3]; oral, rats)?
The value was about 10%.

And the “urinary excretion, of administered dose” value ([3]; oral)?
The value was under 1%.

What about the “feces-specific metabolite peaks P2, P3, and P10 combined, of the administered dose” value ([3]; po, rats) of the same compound?
Its value is 10.5-11.4%.

What about the “other two feces-specific peaks, of the administered dose” value ([3]; po, rats) of the same compound?
The value was under 1%.

What about the “peak P10 in feces, of the administered dose” value ([3]; po, rats) of the same compound?
Its value is “up to 10%”.
